Source: the NIST ThermoML archive (doi:10.1021/je400055v)

Details: Liquid, Vibrating tube method

Cc1cccc(O)c1 [3-methylphenol]
Details	mass density [kg/m3]
313.22 K, 1001 kPa	1019.1
313.22 K, 2012 kPa	1019.8
313.22 K, 3024 kPa	1020.3
313.22 K, 4007 kPa	1020.9
313.22 K, 4992 kPa	1021.4
313.22 K, 6027 kPa	1022
313.22 K, 7013 kPa	1022.6
313.22 K, 8000 kPa	1023.1
313.22 K, 9008 kPa	1023.7
313.22 K, 10014 kPa	1024.3
313.22 K, 11015 kPa	1024.8
313.22 K, 12040 kPa	1025.4
313.22 K, 13022 kPa	1026
313.22 K, 14023 kPa	1026.4
313.22 K, 15002 kPa	1026.9
313.22 K, 16009 kPa	1027.5
313.22 K, 17020 kPa	1028
313.22 K, 18021 kPa	1028.5
313.22 K, 19016 kPa	1029
313.22 K, 20026 kPa	1029.6
313.22 K, 21024 kPa	1030.1
313.22 K, 22026 kPa	1030.7
313.22 K, 23030 kPa	1031.1
313.22 K, 24017 kPa	1031.6
313.22 K, 25019 kPa	1032.2
322.9 K, 1014 kPa	1011.2
322.9 K, 2041 kPa	1011.8
322.9 K, 3002 kPa	1012.4
322.9 K, 4014 kPa	1013
322.9 K, 5012 kPa	1013.6
322.9 K, 6022 kPa	1014.2
322.9 K, 7020 kPa	1014.7
322.9 K, 8018 kPa	1015.3
322.9 K, 9020 kPa	1015.9
322.9 K, 10005 kPa	1016.4
322.9 K, 11018 kPa	1017
322.9 K, 12019 kPa	1017.6
322.9 K, 13017 kPa	1018.2
322.9 K, 14010 kPa	1018.7
322.9 K, 15022 kPa	1019.3
322.9 K, 16000 kPa	1019.8
322.9 K, 17011 kPa	1020.4
322.9 K, 18018 kPa	1020.9
322.9 K, 19018 kPa	1021.4
322.9 K, 20009 kPa	1022
322.9 K, 21019 kPa	1022.6
322.9 K, 22019 kPa	1023.1
322.9 K, 23006 kPa	1023.6
322.9 K, 24012 kPa	1024.1
322.9 K, 25019 kPa	1024.7
332.61 K, 1018 kPa	1003.3
332.61 K, 2014 kPa	1004
332.61 K, 3003 kPa	1004.5
332.61 K, 4030 kPa	1005.2
332.61 K, 5000 kPa	1005.8
332.61 K, 6022 kPa	1006.4
332.61 K, 7020 kPa	1006.9
332.61 K, 8020 kPa	1007.5
332.61 K, 9003 kPa	1008.1
332.61 K, 10014 kPa	1008.7
332.61 K, 11012 kPa	1009.3
332.61 K, 12000 kPa	1009.9
332.61 K, 13000 kPa	1010.4
332.61 K, 14028 kPa	1011
332.61 K, 15028 kPa	1011.6
332.61 K, 16023 kPa	1012.2
332.61 K, 17000 kPa	1012.7
332.61 K, 18008 kPa	1013.3
332.61 K, 19000 kPa	1013.9
332.61 K, 20001 kPa	1014.4
332.61 K, 21013 kPa	1014.9
332.61 K, 22010 kPa	1015.5
332.61 K, 23007 kPa	1016
332.61 K, 24000 kPa	1016.6
332.61 K, 25008 kPa	1017.1
342.27 K, 2018 kPa	995.8
342.27 K, 2999 kPa	996.4
342.27 K, 3998 kPa	997
342.27 K, 4976 kPa	997.6
342.27 K, 5984 kPa	998.3
342.27 K, 7059 kPa	998.9
342.27 K, 8070 kPa	999.7
342.27 K, 8967 kPa	1000.2
342.27 K, 9994 kPa	1000.8
342.27 K, 10921 kPa	1001.4
342.27 K, 11964 kPa	1002.1
342.27 K, 12971 kPa	1002.6
342.27 K, 13954 kPa	1003.2
342.27 K, 14960 kPa	1004
342.27 K, 15941 kPa	1004.3
342.27 K, 16963 kPa	1005.1
342.27 K, 17992 kPa	1005.8
342.27 K, 18963 kPa	1006.2
342.27 K, 19996 kPa	1006.7
342.27 K, 21003 kPa	1007.5
342.27 K, 21974 kPa	1008
342.27 K, 22968 kPa	1008.7
342.27 K, 24051 kPa	1009.2
342.27 K, 24971 kPa	1009.7
352.06 K, 1951 kPa	988.5
352.06 K, 2979 kPa	989.1
352.06 K, 4034 kPa	989.8
352.06 K, 4966 kPa	990.3
352.06 K, 5929 kPa	990.9
352.06 K, 7014 kPa	991.6
352.06 K, 8011 kPa	992.2
352.06 K, 8921 kPa	992.8
352.06 K, 9982 kPa	993.4
352.06 K, 10938 kPa	994
352.06 K, 11975 kPa	994.6
352.06 K, 12999 kPa	995.3
352.06 K, 13907 kPa	995.8
352.06 K, 14981 kPa	996.5
352.06 K, 15966 kPa	997.1
352.06 K, 16996 kPa	997.7
352.06 K, 17984 kPa	998.3
352.06 K, 18991 kPa	998.9
352.06 K, 20005 kPa	999.5
352.06 K, 21038 kPa	1000.1
352.06 K, 22019 kPa	1000.6
352.06 K, 23001 kPa	1001.2
352.06 K, 24029 kPa	1001.8
352.06 K, 24969 kPa	1002.3
361.9 K, 1990 kPa	980.5
361.9 K, 3001 kPa	981.2
361.9 K, 4024 kPa	981.8
361.9 K, 5019 kPa	982.5
361.9 K, 6014 kPa	983.1
361.9 K, 7025 kPa	983.7
361.9 K, 8019 kPa	984.4
361.9 K, 9010 kPa	985
361.9 K, 9978 kPa	985.6
361.9 K, 11019 kPa	986.3
361.9 K, 12038 kPa	986.9
361.9 K, 13020 kPa	987.6
361.9 K, 14021 kPa	988.2
361.9 K, 15006 kPa	988.8
361.9 K, 15970 kPa	989.4
361.9 K, 16988 kPa	990.1
361.9 K, 17991 kPa	990.7
361.9 K, 19016 kPa	991.4
361.9 K, 20042 kPa	992
361.9 K, 20983 kPa	992.6
361.9 K, 22034 kPa	993.3
361.9 K, 23021 kPa	993.9
361.9 K, 24011 kPa	994.6
361.9 K, 24912 kPa	995.1
